{"source": "ChEMBL document CHEMBL3638641", "about": "“Disubstituted heteroaryl-fused pyridines” (2014)", "key": {"Orexin receptor type 2": {"target": "T1, Orexin receptor type 2 (Homo sapiens, UniProt O43614)", "T1 sequence (O43614 whole entry)": "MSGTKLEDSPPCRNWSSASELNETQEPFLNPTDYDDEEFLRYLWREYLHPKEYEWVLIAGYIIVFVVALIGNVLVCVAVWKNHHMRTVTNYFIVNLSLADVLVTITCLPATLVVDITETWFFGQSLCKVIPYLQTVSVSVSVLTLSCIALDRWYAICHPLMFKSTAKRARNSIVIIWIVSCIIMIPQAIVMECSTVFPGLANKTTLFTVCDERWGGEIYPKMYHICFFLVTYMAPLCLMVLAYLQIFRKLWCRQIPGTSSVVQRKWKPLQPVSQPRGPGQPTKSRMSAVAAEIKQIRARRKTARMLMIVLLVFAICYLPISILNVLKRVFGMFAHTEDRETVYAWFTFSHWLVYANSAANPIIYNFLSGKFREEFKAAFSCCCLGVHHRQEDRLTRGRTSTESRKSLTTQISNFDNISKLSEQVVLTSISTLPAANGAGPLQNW", "test": "(§1) Radioligand Binding Assay I : For crude cell membrane preparations, cells (CHO, Chinese hamster ovary or HEK, human embryonic kidney) expressing human orexin 1 or human orexin 2 receptors, were washed with HEPES (10 mM, pH 7.5), scraped off the culture plates with the same buffer, and centrifuged at 4 C for 5 min at 2500 x g. The cell pellet was either stored at -80 C or used directly. Before the experiments, cell membranes were re-suspended in binding assay buffer (10 mM HEPES, 0.5% (w/v) bovine serum albumin, pH 7.5) by homogenisation with a Polytron homogeniser at 50 Hz for 20 s. In competition experiments, cell homogenates (150μΙ) were incubated in assay buffer (10 mM HEPES, pH 7.5, 0.5 % (w/v) bovine serum albumin, 5 mM MgCI2, 1 mMCaCI2, and tween 0.05%) for 1 h at room temperature with about 100 pM of the radioligand ([125l]orexin A, 2100 Ci/mmole, 50 μΙ), and with various concentrations of compounds of the invention (50 μΙ) in triplicates."}, "[1]": {"target": "T2, Orexin/Hypocretin receptor type 1 (Homo sapiens, UniProt O43613)", "T2 sequence (O43613 whole entry)": "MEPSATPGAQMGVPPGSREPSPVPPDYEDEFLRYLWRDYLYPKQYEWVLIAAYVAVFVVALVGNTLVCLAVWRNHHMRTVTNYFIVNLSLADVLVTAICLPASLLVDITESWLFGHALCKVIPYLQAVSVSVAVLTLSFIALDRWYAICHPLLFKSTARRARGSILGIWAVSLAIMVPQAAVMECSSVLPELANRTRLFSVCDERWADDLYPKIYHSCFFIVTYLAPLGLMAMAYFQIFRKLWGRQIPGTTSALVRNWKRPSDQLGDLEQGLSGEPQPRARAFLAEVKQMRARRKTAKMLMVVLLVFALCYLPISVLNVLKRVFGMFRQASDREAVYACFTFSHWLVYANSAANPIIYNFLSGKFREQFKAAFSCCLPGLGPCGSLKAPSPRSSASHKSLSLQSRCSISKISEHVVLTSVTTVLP", "test": "as §1"}}, "data": [{"compound": "C[C@H](NC(=O)COc1cc(C(F)(F)F)c2c(-c3cccc(Cl)c3)nn(C)c2n1)c1ccccc1", "values": [{"measurement": "Kd", "setting": "Orexin receptor type 2", "value": 477, "unit": "nM"}, {"measurement": "Kd", "setting": "[1]", "value": 114, "unit": "nM"}]}]}
